Like-named read-outs stand apart in the source and are kept apart here.
Tests used:
Type in all cases: in vivo
weeds [1] = assay: Activity assay of compositions, post-emergence spray treatment of stems and leaves (F); conditions: F
Method: (§1) The required active ingredient B was purchased from a reagent company or a technical material manufacturer or synthesized by a conventional method. The technical materials were all dissolved with acetone solvents and diluted with aqueous solution of 0.1% Tween® 80 emulsifier, which should be used immediately after dilution.
Weeds were cultivated by the pot culture method. […] Weed seeds with plump and uniform grains were selected, soaked in lukewarm water at 25° C. for 6 hours, and accelerated to germinate in a 28° C. biochemical incubator (in darkness). The weed seeds that had just germinated were evenly placed on the surface of the soil and then covered with 0.5-1 cm soil according to the sizes of seeds.
The weeds were cultured in a controllable sunlight greenhouse at 20-30° C., in natural light and with relative humidity of 57%-72%.
Each treatment was repeated 4 times. Three pots with 20 weed seeds sowed per pot were treated each time.
The drug was applied once in total in the experiment. When at 1.5-2 leaf stage, the weeds were thinned out to maintain 10 strains per pot. Thirty strains were kept in each treatment and then continued to be cultured until the 3-4 leaf stage for further treatment.
The well-cultured test materials were evenly placed on a 0.5 m^2 platform and foliage-sprayed by the 3WP-2000-type walking spray tower at a dosage of […] and a spray pressure of 0.3 MPa. After all the drug solution was sprayed, the air valve was closed. And 30 seconds later, the door of the spray tower was opened, and the nutritional bowl was taken out. Next, the air valve was opened, and the spray tube was cleaned by spraying 50 mL of water. The test materials were transferred to and routinely cultured in a greenhouse after the treatment.
(§2) A method for investigating absolute numbers was employed. The whole seedlings of the survival weeds were cut along the soil surface with a blade, and the fresh weight of the weeds was weighed by an analytical balance. For dead weeds, the fresh weight thereof was considered zero.
(§3) The investigation was performed 21 days after the treatment for once in total.
(§4) The theoretical fresh weight inhibition rate of a mixed combination of each treatment was calculated by the Gowing method (E0═X+Y−X*Y/100), then compared with the measured inhibition rate (E) to evaluate the type of the combined action of the combination of the two on weeds. The combined action was a synergistic effect when E−E0 >10%; an antagonistic effect when E−E0<−10%; an additional effect when −10%≤E−E0≤10%. An optimal ratio was determined according to factors such as actual control effects, characteristics of herbicides, balance of the formulation, etc. In the formula, X represents the fresh weight inhibition rate of the active ingredient A in a dosage of P; Y represents the fresh weight inhibition rate of the active ingredient B in a dosage of Q. The statistical results are shown in Table 6.

Mythimna separata = assay: Insecticidal activity assay, spraying method; conditions: 3rd instar, spray, 48 h after drug application
Method: (§5) Spraying method: the technical material was weighed and dissolved with acetone, and the drug liquid was diluted with distilled water to different concentrations. The 2nd instar Spodoptera frugiperda test insects or the 3rd instar Mythimna separata test insects reared indoors with consistent physiological conditions were selected. Ten test insects were picked into each petri dish. Two 2 cm-long corn leaves were placed in the petri dish and sprayed using a spray tower. Each dosage was repeated 3 times, with acetone of the corresponding concentration as a control. After drug application, the insects were transferred to and reared in a condition where the temperature was 25° C. and the humidity was 60%. The results were investigated 48 h after drug application and the death number per treatment was collected, respectively. The mortality was calculated in accordance with the following equation: Mortality (%)=(Number of dead insects/Number of test insects)×100.

Echinochloa crusgalli = assay: Seedling stage sealing experiment for water-seeding; conditions: 120 g a.i./ha, seedling stage sealing, 15 days, fresh weight control rate
Digitaria sanguinalis = assay: as above; conditions: 120 g a.i./ha, seedling stage sealing, 15 days, fresh weight control rate
Method in brief: (§6)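 Seeds broadcast on soil in nutrition bowls, covered, kept moist in a water-filled box; compound in acetone diluted with water and spray-tower applied at 120, 60, 30 and 15 g a.i./ha, triplicate. Scored after 15 days in greenhouse on a 0–9 scale of fresh-weight growth control, averaged.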

Leptochloa chinensis = assay: as above; conditions: 120 g a.i./ha, 15 days, fresh weight control rate
Method in brief: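 Seeds sown in soil-filled bowls kept moist in water-filled boxes; compound in acetone diluted with water and spray-applied at 120, 60, 30 and 15 g a.i./ha, triplicate. After 15 days in greenhouse, fresh-weight growth control scored on a 0–9 scale (9 = dead, 0 = no effect), averaged.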

Spodoptera frugiperda = assay: Insecticidal activity assay, spraying method; conditions: 2nd instar, spray, 48 h after drug application; for Spodoptera frugiperda/% (mortality): 500 ppm
Method: as §5

Huaidao (rice cultivar) = assay: Seedling stage sealing experiment for water-seeding (crop safety); conditions: 120 g a.i./ha, seedling stage sealing, 15 days, fresh weight control rate
Method in brief: as §6

weeds [2] = assay: Activity assay of compositions, soil sealing treatment (S)
Excerpt: as §1
The test soil was quantitatively filled to ¾ of a pot, and then watered from the bottom of the pot to completely wet the soil to saturation. The seeds of the test weeds were accelerated to Just germinate, and then evenly and quantitatively broadcasted on the soil surface, covered with 0.5-1 cm soil according to the sizes of the seeds, and ready for use 72 hours after broadcasting.
Each treatment was repeated 4 times. Four pots were treated each time with 20 weed seeds per pot.
The seeds were planted in a 20 cm*30 cm square box. Water was added to 2-3 cm deep after sowing, then injected with the drug agent using a syringe, stirred evenly, and left to stand for 2 days to dry naturally. The soil was kept moist afterwards.
as §2, §3
as §4, with “etc.” for “etc. In the formula, X represents the fresh weight inhibition rate of the active ingredient A in a dosage of P; Y represents the fresh weight inhibition rate of the active ingredient B in a dosage of Q. The statistical results are shown in Table 6.”

[3] = Alisma plantago-aquatica, B 30 g a.i./ha
[4] = Alisma plantago-aquatica, B 60 g a.i./ha
[5] = Alisma plantago-aquatica, S, B 3.75 g a.i./ha
[6] = Alisma plantago-aquatica, S, B 7.5 g a.i./ha
[7] = soil, Rotala indica, S, B 150 g a.i./ha, read-out: Control effect of B applied alone in a corresponding dose (%)
[8] = Rotala indica, soil, read-out: Control effect of B applied alone in a corresponding dose (%)
[9] = Rotala indica, S, B 30 g a.i./ha
[10] = Paspalum distichum, soil, read-out: Control effect of B applied alone in a corresponding dose (%)
[11] = Rotala indica, S, B 15 g a.i./ha

In the case of `COCCOC(=O)c1nc(-c2ccc(C(F)(F)F)c(OC)c2F)nc(N)c1OC`, the “Control effect of B applied alone in a corresponding dose (%)” value (“Control effect of B applied alone … (%)” below) (weeds [1]; Alisma plantago-aquatica, B 3.75 g a.i./ha) is reported as 43.5% and the “Control effect of B applied alone … (%)” value (weeds [1]; Alisma plantago-aquatica, B 7.5 g a.i./ha) is reported as 57.2%.
`C[C@@H](Oc1nc(F)c(Cl)c(N)c1Cl)C(=O)OCC1CCCO1` (stereo partly drawn) was tested, and the “Control effect of B applied alone … (%)” value (weeds [1]; [3]) was 38.7% and the “Control effect of B applied alone … (%)” value (weeds [1]; [4]) was 45.6%.
In the case of `Cc1cc(C)cc([C@H]2CN(C)C(=O)[C@@H]2C(=O)Nc2cnn(C)c2C2CC2)c1` [277′], the “Mythimna separata/% (mortality)” value (Mythimna separata; 100 ppm) is reported as 95%, the “Echinochloa crusgalli activity level (growth control rate)” value (Echinochloa crusgalli) is reported as 9 and the “Digitaria sanguinalis activity level (growth control rate)” value (Digitaria sanguinalis) is reported as 6 (Level 6: growth control rate greater than or equal to 70% and less than 80%). The “Leptochloa chinensis activity level (growth control rate)” value (Leptochloa chinensis) was 9.
In the case of `Cc1cc(C)cc([C@H]2CN(C)C(=O)[C@@H]2C(=O)Nc2cnn(C)c2-c2ccc(Cl)cc2)c1` [281′], the “Mythimna separata/% (mortality)” value (Mythimna separata; 500 ppm) is reported as 60%.
Work on `Cc1cc([C@H]2CN(C)C(=O)[C@@H]2C(=O)Nc2cnn(C)c2Cl)nn1C(F)F` [340′] yielded a mortality at 500 ppm (Spodoptera frugiperda; Spodoptera frugiperda) of 87% and a mortality at 500 ppm (Mythimna separata; Mythimna separata, 500 ppm) of 100%.
In the case of `Cc1cc(C)cc([C@H]2CN(C)C(=O)[C@@H]2C(=O)Nc2cnn(-c3ccccc3)c2Cl)c1` [421′], the “Huaidao (rice cultivar) plant damage level” value (Huaidao (rice cultivar)) is reported as 0, the “Spodoptera frugiperda/% (mortality)” value (Spodoptera frugiperda) is reported as 65% and the “Mythimna separata/% (mortality)” value (Mythimna separata; 500 ppm) is reported as 75%. The “Echinochloa crusgalli activity level (growth control rate)” value (Echinochloa crusgalli) was 9.
With `Cc1cc(C)cc([C@H]2CN(C)C(=O)[C@@H]2C(=O)Nc2cnn(C(=O)OC(C)(C)C)c2Cl)c1` [491′] the “Spodoptera frugiperda/% (mortality)” value (Spodoptera frugiperda) was 60% and the “Mythimna separata/% (mortality)” value (Mythimna separata; 500 ppm) was 70%.
With `Cc1cc(C)cc([C@H]2CN(C)C(=O)[C@@H]2C(=O)Nc2cnn(C)c2C=O)c1` [500′] the “Spodoptera frugiperda/% (mortality)” value (Spodoptera frugiperda) was 60% and the “Mythimna separata/% (mortality)” value (Mythimna separata; 500 ppm) was 70%.
`Cc1ccc([C@H]2CN(C)C(=O)[C@@H]2C(=O)Nc2cnn(C)c2Cl)o1` [522′] was tested, and the “Spodoptera frugiperda/% (mortality)” value (Spodoptera frugiperda) was 60% and the “Mythimna separata/% (mortality)” value (Mythimna separata; 500 ppm) was 70%.
For `CC(C)N1C(=O)c2ccccc2NS1(=O)=O` [Bentazone, bentazone, reference compound], the “Control effect of B applied alone … (%)” value (weeds [1]; Paspalum distichum, B 375 g a.i./ha) was 29.2% and the “Control effect of B applied alone … (%)” value (weeds [1]; Paspalum distichum, B 750 g a.i./ha) was 36.7%.
`COc1c(Cl)ccc(-c2nc(C(=O)OCc3ccccc3)c(Cl)c(N)c2F)c1F` [Florpyrauxifen-benzyl, florpyrauxifen-benzyl] was tested, and the “Control effect of B applied alone … (%)” value (weeds [2]; [5]) was 62.8% and the “Control effect of B applied alone … (%)” value (weeds [2]; [6]) was 74.6%.
With `Nc1c(Cl)c(F)nc(OCC(=O)O)c1Cl` [Fluroxypyr, fluroxypyr, reference compound] the “Control effect of B applied alone … (%)” value (weeds [1]; [3]) was 52.5% and the “Control effect of B applied alone … (%)” value (weeds [1]; [4]) was 65.8%.
For `COC(=O)c1nc(-c2ccc(Cl)c(OC)c2F)cc(N)c1Cl` [Halauxifen-methyl, halauxifen-methyl], the “Control effect of B applied alone … (%)” value (weeds [2]; [5]) was 58.4% and the “Control effect of B applied alone … (%)” value (weeds [2]; [6]) was 68.9%.
`CN(C(=O)COc1nc2ccccc2s1)c1ccccc1` [Mefenacet, mefenacet] was tested, and the pest or weed control at 150 g/ha (weeds [2]; [7]) was 38.4% and the pest or weed control at 300 g/ha (weeds [2]; soil, Rotala indica, S, B 300 g a.i./ha, read-out: Control effect of B applied alone in a corresponding dose (%)) was 58.3%.
Molecule `CC(C)Oc1cc(-n2nc(C(C)(C)C)oc2=O)c(Cl)cc1Cl` [Oxadiazon, oxadiazon] has a pest or weed control at 30 g/ha (weeds [2]; soil, Rotala indica, S, B 30 g a.i./ha, read-out: Control effect of B applied alone in a corresponding dose (%)) of 50.5% and a pest or weed control at 60 g/ha (weeds [2]; soil, Rotala indica, S, B 60 g a.i./ha, read-out: Control effect of B applied alone in a corresponding dose (%)) of 68.7%.
With `CC1=C(c2ccccc2)C(=O)N(C(C)(C)c2cc(Cl)cc(Cl)c2)CO1` [Oxaziclomefone, oxaziclomefone] the pest or weed control at 7.5 g/ha (weeds [2]; soil, Paspalum distichum, S, B 7.5 g a.i./ha, read-out: Control effect of B applied alone in a corresponding dose (%)) was 36.9% and the pest or weed control at 15 g/ha (weeds [2]; soil, Paspalum distichum, S, B 15 g a.i./ha, read-out: Control effect of B applied alone in a corresponding dose (%)) was 48.5%.
Work on `CCOc1cc(Oc2ccc(C(F)(F)F)cc2Cl)ccc1[N+](=O)[O-]` [Oxyfluorfen, oxyfluorfen] yielded a pest or weed control at 7.5 g/ha (weeds [2]; soil, Rotala indica, S, B 7.5 g a.i./ha, read-out: Control effect of B applied alone in a corresponding dose (%)) of 51% and a pest or weed control at 15 g/ha (weeds [2]; soil, Rotala indica, S, B 15 g a.i./ha, read-out: Control effect of B applied alone in a corresponding dose (%)) of 69.3%.
Molecule `CC(C)=C1OC(=O)N(c2cc(OC3CCCC3)c(Cl)cc2F)C1=O` [Pentoxazone, pentoxazone] has a pest or weed control at 30 g/ha (weeds [2]; [8]) of 55.3% and a pest or weed control at 60 g/ha (weeds [2]; [8]) of 62.7%.
With `CCCOCCN(C(=O)CCl)c1c(CC)cccc1CC` [Pretilachlor, pretilachlor] the pest or weed control at 75 g/ha (weeds [2]; soil, Rotala indica, S, B 75 g a.i./ha, read-out: Control effect of B applied alone in a corresponding dose (%)) was 54.2% and the pest or weed control at 150 g/ha (weeds [2]; [7]) was 63.9%.
For `CCC(=O)Nc1ccc(Cl)c(Cl)c1` [Propanil, propanil, reference compound], the “Control effect of B applied alone … (%)” value (weeds [1]; Paspalum distichum, B 300 g a.i./ha) was 48.3% and the “Control effect of B applied alone … (%)” value (weeds [1]; Paspalum distichum, B 600 g a.i./ha) was 56.1%.
With `C#CCN(C)c1c(C#N)cnn1-c1nn2c(c1Cl)CCCC2` [Pyraclonil, pyraclonil] the “Control effect of B applied alone … (%)” value (weeds [2]; [9]) was 48.2% and the “Control effect of B applied alone … (%)” value (weeds [2]; Rotala indica, S, B 60 g a.i./ha) was 63.4%.
`CCNc1nc(NCC)nc(SC)n1` [Simetryn, simetryn] showed a pest or weed control at 75 g/ha (weeds [2]; [10]) of 45.5% and a pest or weed control at 150 g/ha (weeds [2]; [10]) of 54.8%.
With `CS(=O)(=O)c1ccc(C(=O)C2C(=O)CCCC2=O)c(Cl)c1COCC1CCCO1` (stereo not drawn) [Tefuryltrione, tefuryltrione] the “Control effect of B applied alone … (%)” value (weeds [2]; [11]) was 30.8% and the “Control effect of B applied alone … (%)” value (weeds [2]; [9]) was 45.2%.
For oxadiargyl, the “Control effect of B applied alone … (%)” value (weeds [2]; Rotala indica, S, B 7.5 g a.i./ha) was 47.2% and the “Control effect of B applied alone … (%)” value (weeds [2]; [11]) was 58.6%.

From patent publication US20260223850A1, “SUBSTITUTED PYRROLIDONE COMPOUND, PREPARATION METHOD THEREFOR, COMPOSITION AND APPLICATION THEREOF” (QINGDAO KINGAGROOT CHEMICAL COMPOUND CO., LTD., priority 2023, published 2026)
